ChEMBL document CHEMBL1641363, “Fragment-based discovery of 6-substituted isoquinolin-1-amine based ROCK-I inhibitors” (Bioorg Med Chem Lett, 2011)

Tests used:
[1] = Volume of distribution at steady state in C57 mouse; format: ADME, organism-based; settings: in vivo, read-out: Vdss
[2] = molecular target: Angiopoietin-1 receptor (Homo sapiens) (UniProt Q02763); settings: 10 uM
Description: Inhibition of Tie2 at 10 uM

[3] = Plasma clearance in C57 mouse; format: ADME, organism-based
[4] = molecular target: Rho-associated protein kinase 2 (Homo sapiens, UniProt O75116); settings: 10 uM
Description: Inhibition of ROCK2 at 10 uM

[5] = molecular target: T1, Dual specificity tyrosine-phosphorylation-regulated kinase 3 (Homo sapiens) (UniProt O43781); settings: 10 uM
T1 sequence (whole entry): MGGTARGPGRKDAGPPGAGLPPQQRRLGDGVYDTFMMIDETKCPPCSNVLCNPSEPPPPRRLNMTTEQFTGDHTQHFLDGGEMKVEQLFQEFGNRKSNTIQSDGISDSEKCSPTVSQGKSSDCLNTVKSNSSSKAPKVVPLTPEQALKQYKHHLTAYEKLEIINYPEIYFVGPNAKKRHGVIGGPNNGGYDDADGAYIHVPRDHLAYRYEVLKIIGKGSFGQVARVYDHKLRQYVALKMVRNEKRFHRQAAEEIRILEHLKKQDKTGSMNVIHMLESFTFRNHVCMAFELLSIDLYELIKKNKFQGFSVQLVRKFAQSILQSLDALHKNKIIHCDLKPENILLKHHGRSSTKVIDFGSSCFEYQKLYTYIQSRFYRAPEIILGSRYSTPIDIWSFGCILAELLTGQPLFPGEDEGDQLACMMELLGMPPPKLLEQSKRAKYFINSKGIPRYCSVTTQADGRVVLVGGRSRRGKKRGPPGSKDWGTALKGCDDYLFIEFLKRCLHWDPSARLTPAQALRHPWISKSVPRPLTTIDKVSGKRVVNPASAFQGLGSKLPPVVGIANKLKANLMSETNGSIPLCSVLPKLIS
Description: Inhibition of DYRK3 at 10 uM

[6] = molecular target: T2, Serine/threonine-protein kinase Sgk2 (Homo sapiens) (UniProt Q9HBY8); settings: 10 uM
T2 sequence (whole entry): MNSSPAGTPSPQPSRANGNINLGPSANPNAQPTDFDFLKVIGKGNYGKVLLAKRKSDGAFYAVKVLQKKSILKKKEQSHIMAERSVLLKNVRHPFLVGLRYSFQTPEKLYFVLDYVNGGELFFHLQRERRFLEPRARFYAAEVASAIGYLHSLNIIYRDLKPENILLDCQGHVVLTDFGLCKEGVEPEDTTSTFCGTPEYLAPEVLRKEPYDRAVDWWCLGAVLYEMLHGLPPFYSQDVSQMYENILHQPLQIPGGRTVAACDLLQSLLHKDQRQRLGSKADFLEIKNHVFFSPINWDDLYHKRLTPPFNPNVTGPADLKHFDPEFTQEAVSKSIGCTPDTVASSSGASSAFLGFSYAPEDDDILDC
Description: Inhibition of SGK2 at 10 uM

[7] = Half life in rat liver microsome; format: ADME; settings: liver microsomes
[8] = Half life in mouse liver microsome; format: ADME; settings: liver microsomes
[9] = molecular target: Serine/threonine-protein kinase SIK2 (Homo sapiens) (UniProt Q9H0K1); settings: 10 uM
Description: Inhibition of SNFILK2 at 10 uM

[10] = molecular target: Casein kinase I isoform alpha (Homo sapiens) (UniProt P48729); settings: 10 uM
Description: Inhibition of CK1 at 10 uM

[11] = Oral bioavailability in C57 mouse; format: ADME, organism-based; settings: in vivo
[12] = molecular target: Rho-associated protein kinase 1 (Homo sapiens, UniProt Q13464); settings: 10 uM
Description: Inhibition of ROCK1 at 10 uM

[13] = Permeability from basolateral to apical side of human Caco2 cells; format: ADME, cell-based; settings: Caco-2, read-out: permeability
[14] = molecular target: T3, Serine/threonine-protein kinase D2 (Homo sapiens) (UniProt Q9BZL6); settings: 10 uM
T3 sequence (whole entry): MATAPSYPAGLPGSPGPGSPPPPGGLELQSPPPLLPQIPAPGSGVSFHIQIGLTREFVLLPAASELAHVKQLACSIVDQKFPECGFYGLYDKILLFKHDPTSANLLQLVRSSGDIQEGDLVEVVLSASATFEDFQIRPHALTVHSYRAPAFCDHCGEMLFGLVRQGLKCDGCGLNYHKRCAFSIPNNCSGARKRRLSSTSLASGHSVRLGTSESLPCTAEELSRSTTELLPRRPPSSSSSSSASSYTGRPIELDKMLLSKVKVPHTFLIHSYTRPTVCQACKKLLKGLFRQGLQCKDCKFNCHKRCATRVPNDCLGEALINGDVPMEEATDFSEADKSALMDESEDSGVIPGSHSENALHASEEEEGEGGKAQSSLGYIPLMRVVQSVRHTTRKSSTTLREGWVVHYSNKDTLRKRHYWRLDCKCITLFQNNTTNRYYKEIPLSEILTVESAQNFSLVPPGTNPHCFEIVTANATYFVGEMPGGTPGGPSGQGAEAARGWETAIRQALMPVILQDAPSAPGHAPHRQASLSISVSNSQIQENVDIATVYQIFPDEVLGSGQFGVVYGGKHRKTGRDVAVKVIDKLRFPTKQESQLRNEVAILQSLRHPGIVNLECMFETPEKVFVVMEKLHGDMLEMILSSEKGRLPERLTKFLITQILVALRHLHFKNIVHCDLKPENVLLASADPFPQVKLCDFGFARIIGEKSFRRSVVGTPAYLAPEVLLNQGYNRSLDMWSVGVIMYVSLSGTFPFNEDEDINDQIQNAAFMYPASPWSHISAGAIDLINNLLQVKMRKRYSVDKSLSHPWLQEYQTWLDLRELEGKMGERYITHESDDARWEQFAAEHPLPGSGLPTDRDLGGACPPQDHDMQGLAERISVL
Description: Inhibition of PKD at 10 uM

[15] = molecular target: Mitogen-activated protein kinase kinase kinase kinase 4 (Homo sapiens) (UniProt O95819); settings: 10 uM
Description: Inhibition of HGK at 10 uM

[16] = Half life in C57 mouse; format: ADME, organism-based; settings: in vivo

Sequence of Mitogen-activated protein kinase kinase kinase kinase 4 (Homo sapiens) (O95819 2-1239 limits assumed): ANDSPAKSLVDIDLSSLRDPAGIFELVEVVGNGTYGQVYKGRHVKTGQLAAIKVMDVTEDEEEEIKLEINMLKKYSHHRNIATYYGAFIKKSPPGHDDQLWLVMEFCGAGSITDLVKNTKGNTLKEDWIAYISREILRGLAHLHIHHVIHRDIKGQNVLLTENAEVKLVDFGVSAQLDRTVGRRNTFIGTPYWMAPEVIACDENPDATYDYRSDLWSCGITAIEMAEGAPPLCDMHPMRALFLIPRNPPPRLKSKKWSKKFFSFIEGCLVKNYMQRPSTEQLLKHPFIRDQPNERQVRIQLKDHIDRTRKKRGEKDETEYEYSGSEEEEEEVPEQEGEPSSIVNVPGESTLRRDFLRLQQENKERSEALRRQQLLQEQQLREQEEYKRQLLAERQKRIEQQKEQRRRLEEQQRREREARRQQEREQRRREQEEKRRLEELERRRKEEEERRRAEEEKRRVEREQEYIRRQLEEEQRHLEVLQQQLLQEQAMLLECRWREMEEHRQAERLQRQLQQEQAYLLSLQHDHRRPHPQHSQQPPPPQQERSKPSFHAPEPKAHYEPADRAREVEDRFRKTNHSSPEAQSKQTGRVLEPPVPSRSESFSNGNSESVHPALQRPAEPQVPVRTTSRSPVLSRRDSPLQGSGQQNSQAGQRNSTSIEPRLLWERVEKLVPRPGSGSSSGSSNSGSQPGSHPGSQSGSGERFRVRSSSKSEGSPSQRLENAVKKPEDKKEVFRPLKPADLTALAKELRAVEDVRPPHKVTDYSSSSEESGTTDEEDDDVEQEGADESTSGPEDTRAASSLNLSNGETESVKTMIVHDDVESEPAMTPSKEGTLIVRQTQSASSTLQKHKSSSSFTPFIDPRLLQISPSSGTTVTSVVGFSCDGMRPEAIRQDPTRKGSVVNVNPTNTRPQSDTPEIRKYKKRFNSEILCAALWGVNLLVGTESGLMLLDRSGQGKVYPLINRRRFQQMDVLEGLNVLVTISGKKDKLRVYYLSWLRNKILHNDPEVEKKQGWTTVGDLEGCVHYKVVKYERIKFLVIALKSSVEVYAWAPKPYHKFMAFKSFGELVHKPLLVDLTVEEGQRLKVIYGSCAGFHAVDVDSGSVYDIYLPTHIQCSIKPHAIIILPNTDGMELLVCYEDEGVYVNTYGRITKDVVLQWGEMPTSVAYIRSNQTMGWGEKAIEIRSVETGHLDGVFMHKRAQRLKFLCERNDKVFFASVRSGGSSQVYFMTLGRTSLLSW
Sequence of Rho-associated protein kinase 2 (O75116 whole entry, looked up): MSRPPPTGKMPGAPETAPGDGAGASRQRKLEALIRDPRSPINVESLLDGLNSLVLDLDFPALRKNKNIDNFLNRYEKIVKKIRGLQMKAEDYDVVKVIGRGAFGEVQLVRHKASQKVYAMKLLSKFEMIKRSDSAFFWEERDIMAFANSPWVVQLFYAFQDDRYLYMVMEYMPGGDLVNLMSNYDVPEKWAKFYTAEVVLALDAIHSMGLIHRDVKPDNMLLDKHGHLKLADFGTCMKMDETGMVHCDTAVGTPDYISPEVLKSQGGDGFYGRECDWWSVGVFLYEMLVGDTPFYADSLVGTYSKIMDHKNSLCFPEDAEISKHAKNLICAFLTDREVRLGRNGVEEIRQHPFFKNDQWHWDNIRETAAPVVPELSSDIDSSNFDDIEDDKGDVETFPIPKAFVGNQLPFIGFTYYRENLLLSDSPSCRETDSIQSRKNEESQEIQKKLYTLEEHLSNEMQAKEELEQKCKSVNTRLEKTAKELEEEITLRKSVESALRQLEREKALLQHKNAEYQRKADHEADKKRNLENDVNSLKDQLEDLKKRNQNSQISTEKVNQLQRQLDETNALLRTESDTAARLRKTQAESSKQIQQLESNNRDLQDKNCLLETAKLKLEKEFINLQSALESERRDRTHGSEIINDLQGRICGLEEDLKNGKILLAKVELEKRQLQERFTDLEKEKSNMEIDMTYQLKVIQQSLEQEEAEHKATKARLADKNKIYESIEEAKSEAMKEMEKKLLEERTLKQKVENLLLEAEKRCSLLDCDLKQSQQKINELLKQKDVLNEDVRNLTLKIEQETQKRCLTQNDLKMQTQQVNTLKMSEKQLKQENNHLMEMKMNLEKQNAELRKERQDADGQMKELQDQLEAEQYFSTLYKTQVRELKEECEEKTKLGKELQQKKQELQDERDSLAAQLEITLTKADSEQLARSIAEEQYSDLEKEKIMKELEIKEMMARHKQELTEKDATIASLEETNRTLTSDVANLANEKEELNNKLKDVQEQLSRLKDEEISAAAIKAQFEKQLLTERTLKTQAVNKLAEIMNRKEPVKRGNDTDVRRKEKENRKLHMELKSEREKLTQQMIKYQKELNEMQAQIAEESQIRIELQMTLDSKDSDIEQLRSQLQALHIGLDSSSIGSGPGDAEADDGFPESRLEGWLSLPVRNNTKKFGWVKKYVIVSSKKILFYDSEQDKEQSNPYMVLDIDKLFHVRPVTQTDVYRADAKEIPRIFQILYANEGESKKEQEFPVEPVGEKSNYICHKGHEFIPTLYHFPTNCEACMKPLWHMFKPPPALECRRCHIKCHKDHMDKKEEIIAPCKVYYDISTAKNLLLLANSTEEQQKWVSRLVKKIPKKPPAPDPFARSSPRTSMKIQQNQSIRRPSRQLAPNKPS
Sequence of Serine/threonine-protein kinase SIK2 (Homo sapiens) (Q9H0K1 whole entry, looked up, canonical isoform): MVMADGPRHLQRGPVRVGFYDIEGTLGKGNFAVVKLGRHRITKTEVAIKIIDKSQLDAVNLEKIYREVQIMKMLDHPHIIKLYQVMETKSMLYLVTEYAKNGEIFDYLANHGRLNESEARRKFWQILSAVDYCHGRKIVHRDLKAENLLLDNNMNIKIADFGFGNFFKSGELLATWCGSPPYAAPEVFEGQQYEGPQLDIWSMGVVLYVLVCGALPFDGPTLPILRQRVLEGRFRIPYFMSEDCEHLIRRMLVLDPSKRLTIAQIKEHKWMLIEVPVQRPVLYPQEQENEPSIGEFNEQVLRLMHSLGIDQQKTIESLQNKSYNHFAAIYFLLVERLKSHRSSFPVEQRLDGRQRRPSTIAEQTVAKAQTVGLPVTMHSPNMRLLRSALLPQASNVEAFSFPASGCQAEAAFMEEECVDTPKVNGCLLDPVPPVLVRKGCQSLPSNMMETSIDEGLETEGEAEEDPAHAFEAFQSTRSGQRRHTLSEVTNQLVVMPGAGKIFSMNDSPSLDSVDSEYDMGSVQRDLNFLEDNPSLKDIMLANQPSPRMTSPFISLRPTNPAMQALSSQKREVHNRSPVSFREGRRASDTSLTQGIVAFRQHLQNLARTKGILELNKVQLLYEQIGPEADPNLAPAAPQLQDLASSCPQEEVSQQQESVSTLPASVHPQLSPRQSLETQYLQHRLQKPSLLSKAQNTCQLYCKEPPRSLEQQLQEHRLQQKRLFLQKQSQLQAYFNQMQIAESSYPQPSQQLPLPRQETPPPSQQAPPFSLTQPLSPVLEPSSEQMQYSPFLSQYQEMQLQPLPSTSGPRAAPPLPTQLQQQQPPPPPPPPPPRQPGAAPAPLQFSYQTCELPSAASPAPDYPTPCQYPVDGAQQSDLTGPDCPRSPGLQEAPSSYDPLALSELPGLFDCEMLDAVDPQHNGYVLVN
Sequence of Rho-associated protein kinase 1 (Q13464 2-1354 limits assumed): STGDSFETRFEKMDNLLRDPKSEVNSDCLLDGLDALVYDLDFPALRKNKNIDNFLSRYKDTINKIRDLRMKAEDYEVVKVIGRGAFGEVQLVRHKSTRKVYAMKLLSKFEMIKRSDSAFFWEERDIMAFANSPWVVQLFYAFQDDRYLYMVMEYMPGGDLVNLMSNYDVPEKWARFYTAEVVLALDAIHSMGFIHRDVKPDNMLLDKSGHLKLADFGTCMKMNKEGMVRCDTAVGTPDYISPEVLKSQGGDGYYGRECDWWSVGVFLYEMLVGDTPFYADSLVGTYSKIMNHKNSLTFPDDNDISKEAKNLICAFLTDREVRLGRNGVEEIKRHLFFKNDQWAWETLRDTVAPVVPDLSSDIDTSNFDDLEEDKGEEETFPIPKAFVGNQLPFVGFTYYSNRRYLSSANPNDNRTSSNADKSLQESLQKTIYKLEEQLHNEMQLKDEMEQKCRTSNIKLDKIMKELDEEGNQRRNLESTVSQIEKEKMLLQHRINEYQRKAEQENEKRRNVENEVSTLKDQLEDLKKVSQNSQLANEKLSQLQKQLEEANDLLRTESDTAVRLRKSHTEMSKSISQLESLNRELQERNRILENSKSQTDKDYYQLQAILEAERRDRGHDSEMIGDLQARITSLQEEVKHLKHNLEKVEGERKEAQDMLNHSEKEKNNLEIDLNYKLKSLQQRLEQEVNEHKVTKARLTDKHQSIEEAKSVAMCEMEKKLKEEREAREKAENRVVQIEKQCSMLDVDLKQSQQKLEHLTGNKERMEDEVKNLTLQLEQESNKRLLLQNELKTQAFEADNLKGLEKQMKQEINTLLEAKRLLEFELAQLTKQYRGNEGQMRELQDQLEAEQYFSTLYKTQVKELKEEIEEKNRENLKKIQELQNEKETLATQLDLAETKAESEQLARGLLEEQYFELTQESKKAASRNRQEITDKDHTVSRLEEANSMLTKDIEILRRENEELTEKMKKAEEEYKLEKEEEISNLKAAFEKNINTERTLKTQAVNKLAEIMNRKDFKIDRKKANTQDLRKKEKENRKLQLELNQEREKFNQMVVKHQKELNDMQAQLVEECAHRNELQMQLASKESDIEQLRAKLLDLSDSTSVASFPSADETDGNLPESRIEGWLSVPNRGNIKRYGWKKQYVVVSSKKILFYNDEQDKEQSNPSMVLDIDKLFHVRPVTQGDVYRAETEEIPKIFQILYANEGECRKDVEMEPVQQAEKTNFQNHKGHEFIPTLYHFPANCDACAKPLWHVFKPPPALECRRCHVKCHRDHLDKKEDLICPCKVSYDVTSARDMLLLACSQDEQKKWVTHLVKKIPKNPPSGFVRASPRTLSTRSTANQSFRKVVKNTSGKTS

In the case of `Nc1nccc2cc(O[C@H]3CCCNC3)ccc12`, the Vd [1] is reported as 11 L/kg, the inhibition [2] is reported as > 80% and the clearance [3] is reported as 9.5 mL/min/kg. The inhibition [4] was > 80%, the inhibition [5] was > 80% and the inhibition [6] was > 80%. For the same molecule, the half-life [7] was > 120 min, the half-life [8] was > 120 min and the inhibition [9] was > 80%. The inhibition [10] was > 80%, the bioavailability [11] was > 75% and the inhibition [12] was > 80%. The Papp B→A [13] was 3.6 ×10⁻⁶ cm/s, the inhibition [14] was > 80% and the inhibition [15] was > 80%. For the same molecule, the half-life [16] was 348 min.
